Our source for the Ki values is PMC6930622, “Validation of an HPLC Method for the Simultaneous Quantification of Metabolic Reaction Products Catalysed by CYP2C11 Enzymes in Rat Liver Microsomes: In Vitro Inhibitory Effect of Salicylic Acid on CYP2C11 Enzyme” (Molecules, 2019).

For the assay, the target named is T1, CYP2C11 (Rattus norvegicus, UniProt P08683).
T1 sequence (P08683 1-500): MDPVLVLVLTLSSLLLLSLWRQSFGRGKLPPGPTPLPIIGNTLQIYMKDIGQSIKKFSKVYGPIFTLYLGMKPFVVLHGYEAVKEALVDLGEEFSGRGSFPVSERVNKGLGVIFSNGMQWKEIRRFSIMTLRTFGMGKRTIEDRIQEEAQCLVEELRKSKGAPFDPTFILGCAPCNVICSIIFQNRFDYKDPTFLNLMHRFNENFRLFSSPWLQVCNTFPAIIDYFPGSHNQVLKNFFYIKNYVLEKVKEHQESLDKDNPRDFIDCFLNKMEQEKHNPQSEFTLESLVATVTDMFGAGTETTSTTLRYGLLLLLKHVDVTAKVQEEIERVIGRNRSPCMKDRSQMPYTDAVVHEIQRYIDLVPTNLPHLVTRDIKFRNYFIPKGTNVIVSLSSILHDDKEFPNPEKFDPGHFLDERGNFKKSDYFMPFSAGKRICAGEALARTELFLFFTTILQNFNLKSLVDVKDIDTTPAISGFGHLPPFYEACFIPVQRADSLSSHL
As to the kind of experiment: testosterone […]α-hydroxylation in pooled male Sprague-Dawley rat liver microsomes, HPLC; Lineweaver-Burk. The assay is classed as biochemical. A general note: Microsomes from liver hold many membrane-bound enzymes, among them those of drug oxidation.

SMILES strings stand for the structures.

Take `O=C(O)c1ccccc1O` [salicylic acid]: the Ki – broadly, the dissociation constant of the complex between target and ligand, obtained from inhibition or displacement – amounted to 84.6 ± 2.67 µM.
